Reference: patent US7740867B2, “Method for identification of virulence determinants” (priority 2000, dated 2010)

Legend:
[1] = system: M. paratuberculosis strain K-10; experiment: Susceptibility of growing and non-growing M. paratuberculosis in broth culture to antimicrobial agents; assay type: cell-based, Mycobacterium paratuberculosis
Description: Antimicrobial agents (antibiotics) tested were the fluoroquinolone Bay y 3118, and D-cycloserine. The aminoglycoside amikacin which kills both growing and non-growing M. paratuberculosis, was included as a control. M. paratuberculosis strain K-10 was grown in complete Middlebrook 7H9 medium containing mycobactin J as described above to an optical density (OD600) of 0.3 to 0.4. For non growing conditions, cells (200 ml) were harvested at room temperature, washed in MSS (Middlebrook 7H9 salt solution: 1.0 g/L KH2PO4, 0.05 g/L MgSO4, NH4SO4, 2.5 g/L Na2HPO4, 0.0005 g/L CaCl2, 0.001 g/L ZnSO4, and 0.001 g/L CuSO4), and resuspended in MSS as a single-cell suspension (Williams et al., J. Clin. Microbiol., 37:304-309, 1999). Aliquots (10 ml at a cell density of 2×10^8 CFU/mL) were placed in sterile tissue culture flasks, and antibiotics were added at the following final concentrations Bay y 3118: 0.075 μg/mL (5×MIC) and 0.3 μg/mL (20×MIC); D-cyloserine: 125 μg/mL (5×MIC) and 500 μg/mL (20×MIC); amikacin: 10 μg/mL (5×MIC), and 40 μg/mL (20×MC). These cultures and a control without antibiotics (0×) were incubated at 37° C. and appropriate dilutions were plated in triplicate onto complete Middlebrook 7H9 medium at various time points. […] For growing conditions, cells were treated as described except that the growth control (0×) was diluted 1:10 and all cells were washed and resuspended in complete medium instead of MSS. The cells were also inoculated into MSS (no-growth control).

[2] = system: M. paratuberculosis strain K-10; experiment: Minimal inhibitory concentration (MIC) determination; assay type: cell-based, Mycobacterium paratuberculosis
Excerpt: The exact amount of the antimicrobial used will vary with the particular substance and organism in question. In general, the concentration of the antimicrobial should exceed the approximate minimal inhibitory concentration (MIC) for the particular organism being studied. Determination of MIC is routine in the art and can be accomplished by the skilled technician without undue experimentation. […] In another embodiment, the concentration of Bay y 3118 is 5× the MIC. […] In yet another embodiment, the concentration of D-cycloserine is 5× the MIC.

[3] = system: Mycobacterium avium within human macrophages; settings: reported by Bermudez et al., 1999; cited from earlier work
[4] = 5× the MIC, MSS salt solution (non growing conditions), 37° C., FIG. 3
[5] = 5× the MIC, complete Middlebrook 7H9 medium (growing conditions), 37° C., FIG. 3

SMILES: NCC[C@H](O)C(=O)N[C@@H]1C[C@H](N)[C@@H](O[C@H]2O[C@H](CN)[C@@H](O)[C@H](O)[C@H]2O)[C@H](O)[C@H]1O[C@H]1O[C@H](CO)[C@@H](O)[C@H](N)[C@H]1O [Amikcin, amikacin]
- susceptibility of bacteria in stasis compared with growing bacteria ([1]; concentration not given (5× and 20× MIC tested)): particularly more susceptible
- effect on growing bacteria ([1]; concentration not given (5× and 20× MIC tested), growing conditions): bactericidal
- effect on non growing bacteria ([1]; concentration not given (5× and 20× MIC tested), non growing conditions): bactericidal

SMILES: Cl.O=C(O)c1cn(C2CC2)c2c(Cl)c(N3C[C@@H]4CCCN[C@@H]4C3)c(F)cc2c1=O [Bay y 3118]
- MIC [2]: approximately 0.015 μg/mL
- effect on non growing bacteria [1, 4]: does not kill non growing bacteria
- effect on growing bacteria [1, 5]: has a bactericidal action on growing bacteria
- killing of growing versus non-growing Mycobacterium avium within human macrophages [3]: kill growing but not non-growing

SMILES: N[C@@H]1CONC1=O [D-cycloserine]
- MIC [2]: approximately 25 μg/mL
- effect on non growing bacteria [1, 4]: moderate bactericidal effect
- effect on growing bacteria [1, 5]: moderate bactericidal effect
- effect on non growing bacteria ([1]; 20× the MIC, MSS salt solution (non growing conditions), 37° C., FIG. 3): moderate bactericidal effect
- effect on growing bacteria ([1]; 20× the MIC, complete Middlebrook 7H9 medium (growing conditions), 37° C., FIG. 3): moderate bactericidal effect
